Assays:
conscious beagle dogs = experiment: 10 minute intravenous infusion, increasing doses: mean blood pressure, heart rate, plasma histamine (ELISA); type: in vivo, dog; details: pretreatment before i.v. sulcardine sulfate
anesthetized dogs = experiment: Hemodynamic effects of 15 minute infusions (10, 30, 90 mg/kg) with or without diphenhydramine pretreatment; type: in vivo, dog; details: given prior to IV sulcardine sulfate
Method: Dogs were administered morphine (2 mg/kg subcutaneously) approximately 10-19 minutes prior to administration of anesthesia. Dogs were anesthetized with 1% α-chloralose (100 mg/kg intravenous), followed by a constant infusion of α-chloralose (35-75 mg/kg/hr, IV). Two healthy female dogs were administered escalating doses of sulcardine sulfate intravenously over 15 minutes in an acetate buffer system at dose levels of 10, 30 and 90 mg/kg with dose administrations separated by 60 minutes. Another set of two dogs received test article after pre-treatment with diphenhydramine (1 mg/kg administered 30 minutes prior to start of test article infusion). Following drug administration, dogs were evaluated for ventricular, pulmonary and peripheral hemodynamic changes using Swanz Ganz and femoral catheters as well as by monitoring of blood oxygen saturation, test article blood level, body temperature, blood biochemistry, hematology, ECG, and histamine levels.

post-MI canine = experiment: Defibrillation threshold / failure risk in post-MI canine model; type: in vivo

Row | Structure (SMILES) | Effect of pretreatment on histamine-mediated events of sulcardine sulfate (conscious beagle dogs) | Effect of anti-histamine on cutaneous manifestations of histamine release (flushing and facial and ear edema) (anesthetized dogs) | Effect of anti-histamine on hypotension seen on dosing (anesthetized dogs) | Defibrillation failure risk (post-MI canine)
1 | CN(C)CCOC(c1ccccc1)c1ccccc1 [diphenhydramine, reference compound] | prevented the histamine-mediated events | blunting some of the cutaneous manifestations of histamine release | only partially reversed the hypotension | 
2 | O=C(NCC1CCCCN1)c1cc(OCC(F)(F)F)ccc1OCC(F)(F)F (centres unmarked) [flecanide] |  |  |  | increase defibrillation failure risk
3 | N#Cc1cc(NC(=O)C(=O)O)c(Cl)c(NC(=O)C(=O)O)c1 [lodoxamide] | prevented the histamine-mediated events |  |  | 
